Results reported in patent publication US20040106584A1, “Prophylactic docosahexaenoic acid therapy for patients with subclinical inflammation” (priority 2002, published 2004).

Experiments:
[1] = system: ADP-induced platelet aggregation; conditions: oral loading dose of 300-600 mg; cited from earlier work
[2] = cited from earlier work
[3] = in vivo; cited from earlier work
C-reactive protein (CRP) = assay: Clinical study of DHASCO capsules co-administered with statin in dyslipidemia patients: CRP levels; format: in vivo, human; conditions: 20 patients treated with DHA, 200 or 1000 mg daily
Protocol: In a clinical study DHASCO capsules (which contained DHA as a triglyceride oil extracted from Crypthecodinium cohnii cells, obtained from Martek Biosciences Corp., Columbia, Md.) were co-administered with statin medication to patients with dyslipidemia. Hyperlipidemic patients already being treated with a stable dose of a statin medication but still failing to meet NCEP guidelines for LDL-cholesterol or triglycerides were treated with either 200 or 1000 mg of DHA daily for 12 months. HbAlc levels (glycosylated hemoglobin, a marker of glycemic control) were measured in plasma at baseline and after 8 or 12 months of treatment.
Reduction in CRP of this extent is clinically significant, and may be correlated with a benefit of reduced risk of Type II diabetes onset, independent of other Type II risk factors.

obese diabetic mice = conditions: 100 mg/kg body weight, but not normal or lean diabetic mice; cited from earlier work
[4] = molecular target: T1, platelet glycoprotein IIb/IIa receptors (Homo sapiens, UniProt P05106+P08514); conditions: cited from earlier work
T1 construct: host or cells: platelets in vivo (endogenous receptor)

COC(=O)[C@H](c1ccccc1Cl)N1CCc2sccc2C1 [Clopidogrel]
time to detectable inhibition of ADP-induced platelet aggregation [1]: 2 h
time to maximal inhibition of ADP-induced platelet aggregation [1]: 6 h
reduction of the risk of serious vascular events compared with aspirin ([2]; high-risk patients): about 10%
risk of skin rash and diarrhea compared with aspirin [3]: about a third

Clc1ccccc1CN1CCc2sccc2C1 [Ticlopidine]
risk of skin rash and diarrhea compared with aspirin [3]: doubles

CC/C=C\C/C=C\C/C=C\C/C=C\C/C=C\C/C=C\CCC(=O)O [DHA, docosahexaenoic acid]
overall reduction in CRP level (C-reactive protein (CRP)): 15%

CC/C=C\C/C=C\C/C=C\C/C=C\C/C=C\C/C=C\CCC(=O)OCC [DHA ethyl ester]
blood glucose (obese diabetic mice): reduced
insulin sensitivity (obese diabetic mice): enhanced
plasma triglycerides (obese diabetic mice): reduced

abciximab: humanized mouse antibody fragment with a high binding affinity for the glycoprotein IIb/IIa receptor
persistent blockade of platelet glycoprotein IIb/IIa receptors ([4]; 24 hours after cessation of an infusion): more than 50%
time to recovery of platelet function ([4]; after cessation of an infusion): 2 days

CC(=O)Oc1ccccc1C(=O)O [Aspirin, acetylsalicylic acid]
reduction of the risk of serious vascular events ([2]; patients at high risk of such an event): about a quarter
